For assay [1], the system named is E. coli MSI001. Description: Biofilm detection (crystal violet, A570). Type of assay: cell-based, Escherichia coli. Conditions: peptide 0-4 μmol/L, 37 °C, 3 days, A570, n = 5. The protocol: Fig. 6 Antimicrobial activity of the C7C-LL37 fusion peptides in vitro. a Primary structures and physical properties of the C7C and LL37 fusion peptides, including LL37, VTK-LL37, LL37-VTK, KYY-LL37 and LL37-KYY, ISS-LL37, INS-LL37. Net charge, PI and GRAVY values were acquired as described above. b Inhibitory effect of C7C-LL37 fusion peptides on bacterial growth. A C7C-LL37 fusion peptide or LL37 alone was added to the cultured bacterial strain MSI001 (1 × 10^3 CFU) at final concentrations of 0.25 μmol/L, 0.5 μmol/L and 1 μmol/L. Sterile DPBS was used as control. After incubation with the C7C-LL37 or LL37 peptides at 37 °C for different times (1-8 h), bacterial colonies were counted. n = 3. *P < 0.05, VTK-LL37 group compared to LL37 group; ^#P < 0.05, LL37-VTK group compared to LL37 group. c, d Inhibitory effect of VTK-LL37 on biofilm formation. […] The biofilm was stained with 1% crystal violet, and the precipitates were dissolved in 95% ethanol, followed by detection of absorbance at 570 nm (A570) (c). […]
When the OD600 of the bacterial suspension reached 1.0, the bacteria were transferred to a 96-well plate, and the VTK-LL37 or LL37 peptide was added at final concentrations of 0.5 μmol/L, 1 μmol/L, 2 μmol/L, or 4 μmol/L, followed by incubation at 37 °C. […] Bacterial biofilms were observed by microscopy and quantitated by spectrometry. […]

Assay [2] relates to E. coli MSI001. Description: Survival of mice subjected to septic modeling with MSI001. Type of assay: in vivo, C57BL/6 mice. Conditions: MSI001 6 × 10^6 CFU/g i.p.; peptide 0.2 nmol/g i.v. 1 h later; observed up to 168 h; Kaplan-Meier; n = 20. The text has this:
(§1) Wild-type C57 mice were intraperitoneally injected with MSI001 bacteria (6 × 10^6 CFU/g body weight) to reproduce a sepsis model. […] Normal saline (NS) was used as control. […] One hour after CLP modeling, the mice were intravenously injected with LL37 or VTK-LL37 peptide at a dosage of 0.2 nmol/g body weight. Equal volume of normal saline (NS) was used as control. […] The mice were intraperitoneally injected with MSI001 bacteria. One hour later, the mice were subjected to tail vein injection (TVI) with VTK-LL37 (VTK-LL37 group), LL37 (LL37 group) or an equivalent volume of NS (sepsis group). Wild-type mice without modeling were used as controls (control group). The blood bacteria were quantitated as colony forming units (CFU) 12 h after injection of bacteria. n = 8. *P < 0.05, compared to control; ^#P < 0.05, compared to sepsis group^; ΔP < 0.05, compared to LL37 group. Results are expressed as the median with range. d Suppression of VTK-LL37 on the production of HMGB1 in the blood of septic mice. […] Twelve hours after bacterial injection, HMGB1 in the serum was quantitated by ELISA. n = 8. *P < 0.05, compared to control; ^#P < 0.05, compared to sepsis group; ^ΔP < 0.05, compared to LL37 group^. Results are expressed as the mean ± SD. e, f Protective effect of VTK-LL37 against organ damage in mice subjected to bacterial injection. […]

The subject of assay [3] is CLP mice. Description: Survival of CLP mice. Type of assay: in vivo, C57BL/6 mice. Conditions: peptide 0.2 nmol/g i.v. 1 h after CLP; observed up to 168 h; Kaplan-Meier; n = 15.
Source text: as §1

Assay [4] concerns E. coli MSI001. Description: In vivo antibacterial assay (blood CFU). Also noted: species or system C57BL/6 mice. Conditions: MSI001 6 × 10^6 CFU/g i.p.; peptide 0.2 nmol/g tail vein 1 h later; blood CFU at 12 h; n = 8.
Source text: as §1

Take “CVTKLGSLCVPGVGLLGDFFRKSKEKIGKEFKRIVQRIKDFLRNLVPRTES [VTK-LL37]”: in assay [1], the “inhibition of biofilm formation” value was “inhibited biofilm formation of E. coli MSI001, and VTK-LL37 had a stronger inhibition of biofilm formation at a low dose than LL37 alone”. Moreover, the “survival of septic mice” value in assay [2] is recorded as “significantly increased the survival of septic mice”. For the same sequence, the “survival of CLP mice” value in assay [3] was “significantly increased the survival of sepsis mice induced by CLP modeling”. For the same sequence, in assay [4], the “suppression of bacterial growth in blood of septic mice” value is recorded as “stronger capability to suppress the bacterial growth of E. coli MSI001 in the blood of septic mice than LL37”.

These data come from publication PMC9309159, “Identification of heptapeptides targeting a lethal bacterial strain in septic mice through an integrative approach” (Signal Transduction and Targeted Therapy, 2022).
